# Laboratory results reported in patent US20200101068A1, “Heteroaryl Derivatives as PARP Inhibitors” (Lupin Limited, priority 2015, published 2020).
# Biological target: T1, PARP1 (Homo sapiens, UniProt P09874)
# T1 construct: purchased BPS Bioscience
# Experiment: PARP1 biochemical assay (BPS Bioscience kit, chemiluminescent)
# Conditions: histone-coated plate, biotinylated NAD+, 60 min at 25° C., luminescence; read-out: PARP 1 inhibition IC50
# Procedure: Example 16: PARP1 Biochemical Assay
# The assay was performed using BPS Bioscience kit. The 96-well strip plate was coated with 50 μl of histone mixture and incubated at 4° C. overnight. The next day, the wells were blocked by adding 100 μl of blocking buffer. The plate was washed and 25 μl of appropriate concentration of PARP1 (25-75 ng/well) was added in all of the Test and Positive control wells. In the Negative control wells, the enzyme was replaced with 25 μl of water. 5 μl each of 10× PARP assay buffer and activated DNA was added in all the wells (Test, Positive and Negative control wells). 10× concentration of the test compounds were prepared and 5 μl test compounds were added to the respective wells. The reaction volume was made up to 45 μl by adding water to all of the wells. 5 μl of 10× PARP assay mixture containing biotinilated NAD^+ was added in each well and the plate was incubated at ambient temperature (25° C.) for 60 min. After washing the plate 50 μl of Streptavidin-HRP was added in each well, the plate was incubated at RT for 30 min. The plate was washed and the luminescence was read in PHERAStar plate reader after adding 100 μl of chemiluminescent substrate.
# PARP inhibition was calculated using the following formula:
# % PARP inhibition=100−[(RLU test compound treated sample−RLU negative control)/(RLU Positive control−RLU negative control)×100]
# IC50 values were calculated by plotting % inhibition against the respective concentrations of test compounds using GraphPad Prism 5.
# T1 sequence (P09874 whole entry): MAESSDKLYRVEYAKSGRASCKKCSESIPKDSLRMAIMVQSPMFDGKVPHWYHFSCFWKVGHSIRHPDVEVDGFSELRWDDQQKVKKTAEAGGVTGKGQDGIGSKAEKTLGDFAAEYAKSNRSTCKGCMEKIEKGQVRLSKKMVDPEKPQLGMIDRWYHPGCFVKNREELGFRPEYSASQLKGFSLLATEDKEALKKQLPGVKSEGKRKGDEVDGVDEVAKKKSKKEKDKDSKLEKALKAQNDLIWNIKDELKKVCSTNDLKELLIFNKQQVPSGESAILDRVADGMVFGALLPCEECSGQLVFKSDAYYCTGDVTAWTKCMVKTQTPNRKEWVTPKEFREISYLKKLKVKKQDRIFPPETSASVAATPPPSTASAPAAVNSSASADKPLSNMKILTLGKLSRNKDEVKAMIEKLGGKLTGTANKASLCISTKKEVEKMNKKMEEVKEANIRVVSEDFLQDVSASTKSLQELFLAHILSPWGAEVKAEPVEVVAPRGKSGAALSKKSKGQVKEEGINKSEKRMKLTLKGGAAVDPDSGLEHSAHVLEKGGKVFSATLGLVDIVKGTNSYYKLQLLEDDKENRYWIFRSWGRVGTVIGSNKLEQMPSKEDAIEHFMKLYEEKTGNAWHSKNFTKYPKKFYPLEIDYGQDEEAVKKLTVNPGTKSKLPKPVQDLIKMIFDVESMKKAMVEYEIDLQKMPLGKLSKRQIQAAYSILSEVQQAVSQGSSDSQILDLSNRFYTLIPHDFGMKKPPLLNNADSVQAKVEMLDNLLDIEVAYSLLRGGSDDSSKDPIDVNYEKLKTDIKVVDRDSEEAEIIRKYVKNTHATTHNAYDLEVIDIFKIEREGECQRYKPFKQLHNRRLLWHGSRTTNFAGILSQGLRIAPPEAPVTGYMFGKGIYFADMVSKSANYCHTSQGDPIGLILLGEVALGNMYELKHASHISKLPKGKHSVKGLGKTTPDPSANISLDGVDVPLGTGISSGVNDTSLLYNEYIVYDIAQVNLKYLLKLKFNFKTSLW
row,Compound,IC50 [nM]
1,"N#Cc1ccc(N2CCN([C@H]3C=C(c4cc5ncccc5c(=O)[nH]4)CC3)CC2)c(F)c1 [Compound 23, (R)-3-fluoro-4-(4-(3-(5-oxo-5,6-dihydro-1,6-naphthyridin-7-yl)cyclopent-2-en-1-yl)piperazin-1-yl)benzonitrile]",0.5 to 5
2,"O=c1[nH]c(C2=C[C@H](N3CCN(c4ccc(Cl)cc4)CC3)CC2)cc2ncccc12 [Compound 24, (R)-7-(3-(4-(4-chlorophenyl)piperazin-1-yl)cyclopent-1-en-1-yl)-1,6-naphthyridin-5(6H)-one]",0.5 to 5
3,"O=c1[nH]c(C2=C[C@H](N3CCN(c4ccc(F)cc4F)CC3)CC2)cc2ncccc12 [Compound 39, (R)-7-(3-(4-(2,4-difluorophenyl)piperazin-1-yl)cyclopent-1-en-1-yl)-1,6-naphthyridin-5(6H)-one]",0.5 to 5
4,"Cc1ccccc1N1CCN([C@H]2C=C(c3cc4ncccc4c(=O)[nH]3)CC2)CC1 [Compound 3, (R)-7-(3-(4-(o-tolyl)piperazin-1-yl)cyclopent-1-en-1-yl)-1,6-naphthyridin-5(6H)-one]",0.5 to 5
5,"N#Cc1ccc(N2CCN([C@H]3C=C(c4cc5sccc5c(=O)[nH]4)CC3)CC2)nc1 [Compound 50, (R)-6-(4-(3-(4-oxo-4,5-dihydrothieno[3,2-c]pyridin-6-yl)cyclopent-2-en-1-yl)piperazin-1-yl)nicotinonitrile]",0.5 to 5
6,"N#Cc1ccc(N2CCN([C@H]3C=C(c4cn5cccc5c(=O)[nH]4)CC3)CC2)cc1 [Compound 56, (R)-4-(4-(3-(1-oxo-1,2-dihydropyrrolo[1,2-a]pyrazin-3-yl)cyclopent-2-en-1-yl)piperazin-1-yl)benzonitrile]",0.5 to 5
7,"N#Cc1ccc(N2CCN([C@@H]3CC[C@H](c4cc5ncccc5c(=O)[nH]4)C3)CC2)cc1 (single isomer, unassigned) [Compound 11]",0.5 to 5
8,"CC(=O)c1ccc(N2CCN([C@H]3C=C(c4cc5ncccc5c(=O)[nH]4)CC3)CC2)cc1 [Compound 28, (R)-7-(3-(4-(4-acetylphenyl)piperazin-1-yl)cyclopent-1-en-1-yl)-1,6-naphthyridin-5(6H)-one]",0.5 to 5
9,"O=c1[nH]c(C2=C[C@H](N3CCN(c4ccc(F)cc4)CC3)CC2)cc2ncccc12 [Compound 22, (R)-7-(3-(4-(4-fluorophenyl)piperazin-1-yl)cyclopent-1-en-1-yl)-1,6-naphthyridin-5(6H)-one]",0.5 to 5
10,"CCOC(=O)c1ccc(N2CCN([C@H]3C=C(c4cc5ncccc5c(=O)[nH]4)CC3)CC2)cc1 [Compound 20, Ethyl (R)-4-(4-(3-(5-oxo-5,6-dihydro-1,6-naphthyridin-7-yl)cyclopent-2-en-1-yl)piperazin-1-yl)benzoate]",0.5 to 5
11,"CNC(=O)c1ccc(N2CCN([C@H]3C=C(c4cc5ncccc5c(=O)[nH]4)CC3)CC2)cc1 [Compound 18, (R)—N-methyl-4-(4-(3-(5-oxo-5,6-dihydro-1,6-naphthyridin-7-yl)cyclopent-2-en-1-yl)piperazin-1-yl)benzamide]",0.5 to 5
12,"N#Cc1ccc(N2CCN([C@H]3C=C(c4cc5ccncc5c(=O)[nH]4)CC3)CC2)cc1 [Compound 38, (R)-4-(4-(3-(1-oxo-1,2-dihydro-2,7-naphthyridin-3-yl)cyclopent-2-en-1-yl)piperazin-1-yl)benzonitrile]",0.5 to 5
13,"CNc1ccc(N2CCN([C@H]3C=C(c4cc5ncccc5c(=O)[nH]4)CC3)CC2)cc1 [Compound 27, (R)-7-(3-(4-(4-(methylamino)phenyl)piperazin-1-yl)cyclopent-1-en-1-yl)-1,6-naphthyridin-5(6H)-one]",5.1 to 50
14,"O=c1[nH]c(C2=C[C@H](N3CCN(c4ccccc4)CC3)CC2)cc2sccc12 [Compound 48, (R)-6-(3-(4-phenylpiperazin-1-yl)cyclopent-1-en-1-yl)thieno[3,2-c]pyridin-4(5H)-one]",0.5 to 5
15,"O=c1[nH]c(C2=C[C@H](N3CCN(c4nccs4)CC3)CC2)cc2sccc12 [Compound 51, (R)-6-(3-(4-(thiazol-2-yl)piperazin-1-yl)cyclopent-1-en-1-yl)thieno[3,2-c]pyridin-4(5H)-one]",5.1 to 50
16,"N#Cc1ccc(N2CCN([C@H]3C=C(c4cc5ncsc5c(=O)[nH]4)CC3)CC2)cc1 [Compound 43, (R)-4-(4-(3-(4-oxo-4,5-dihydrothiazolo[5,4-c]pyridin-6-yl)cyclopent-2-en-1-yl)piperazin-1-yl)benzonitrile]",0.5 to 5
17,"CNC(=O)c1ccc(N2CCN([C@H]3C=C(c4cc5sccc5c(=O)[nH]4)CC3)CC2)cc1 [Compound 49, (R)—N-methyl-4-(4-(3-(4-oxo-4,5-dihydrothieno[3,2-c]pyridin-6-yl)cyclopent-2-en-1-yl)piperazin-1-yl)benzamide]",0.5 to 5
18,"Cc1c(C2=C[C@H](N3CCN(c4ccc(C#N)cc4)CC3)CC2)[nH]c(=O)c2cccnc12 [Compound 9, (R)-4-(4-(3-(8-methyl-5-oxo-5,6-dihydro-1,6-naphthyridin-7-yl)cyclopent-2-en-1-yl)piperazin-1-yl)benzonitrile]",0.5 to 5
19,"N#Cc1ccc(N2CCN([C@H]3C=C(c4cc5ncncc5c(=O)[nH]4)CC3)CC2)cc1 [Compound 40, (R)-4-(4-(3-(5-oxo-5,6-dihydropyrido[4,3-d]pyrimidin-7-yl)cyclopent-2-en-1-yl)piperazin-1-yl)benzonitrile]",0.5 to 5
20,"N#Cc1ccc(N2CCN([C@H]3C=C(c4cc5ncc(N)cc5c(=O)[nH]4)CC3)CC2)cc1 [Compound 7, (R)-4-(4-(3-(3-amino-5-oxo-5,6-dihydro-1,6-naphthyridin-7-yl)cyclopent-2-en-1-yl)piperazin-1-yl)benzonitrile]",0.5 to 5
